Experiments:
Assay in all cases: General post-emergent herbicidal activity, foliar application
Assay type in all cases: in vivo
[1] = system: Amaranthus retroflexus L. (pigweed, redroot); conditions: for pest or weed control at 280 g/ha: 280 g ai/ha; for pest or weed control at 70 g/ha: 70 g ai/ha; for pest or weed control at 140 g/ha: 140 g ai/ha; for GR80 Value AMARE: calculated by probit analysis, dose for 80% visual injury, may be extrapolated
Protocol: (§1) A weighed amount, determined by the highest rate to be tested, of each test compound was placed in a 25 mL glass vial and was dissolved in 4 mL of a 97:3 v/v (volume/volume) mixture of acetone and dimethyl sulfoxide to obtain concentrated stock solutions which will be referred to as General Purpose Solvent. […] The concentrated stock solutions obtained were diluted with 20 mL of an aqueous mixture containing water, General Purpose Solvent, isopropyl alcohol, Atplus 411F crop oil concentrate, and Triton X-155 surfactant in a 46:42:12:1.0:0.02 v/v ratio to obtain spray solutions containing the highest application rates. Additional application rates were obtained by serial dilution of 12 mL of the high rate solution into a solution containing 2 mL of 97:3 v/v (volume/volume) mixture of acetone and dimethyl sulfoxide and 10 mL of an aqueous mixture containing water, General Purpose Solvent, isopropyl alcohol, Atplus 411F crop oil concentrate, and Triton X-155 surfactant in a 46:42:12:1.0:0.02 v/v ratio to obtain 1/2×, 1/4×, 1/8× and 1/16× rates of the high rate. […] Control plants were sprayed in the same manner with the solvent blank.
(§2) The treated plants and control plants were placed in a greenhouse as described above and watered by sub-irrigation to prevent wash-off of the test compounds. After 14 days, the condition of the test plants as compared with that of the untreated plants was determined visually and scored on a scale of 0 to 100 percent where 0 corresponds to no injury and 100 corresponds to complete kill.
(§3) By applying the well-accepted probit analysis as described by J. Berkson in […], 48, 565 (1953) and by D. Finney in “Probit Analysis” Cambridge University Press (1952), the dose response data gathered as expressed above can be used to calculate GR20, GR50 and GR80 values, which are defined as growth reduction factors that correspond to the effective dose of herbicide required to kill or control 20 percent, 50 percent or 80 percent, respectively, of a target plant. Data not expressed in Table A may have been used to calculate some of the GR80 values in Table B. In some cases, the GR80 values may be extrapolations calculated based on the slope of the dose response curve for individual compounds listed in Table B.

[2] = system: Chenopodium album L. (lambsquarters, common); conditions: for pest or weed control at 280 g/ha: 280 g ai/ha; for pest or weed control at 70 g/ha: 70 g ai/ha; for pest or weed control at 140 g/ha: 140 g ai/ha; for GR80 Value CHEAL: calculated by probit analysis, dose for 80% visual injury, may be extrapolated
Protocol: as §1, §2, §3

[3] = system: Echinochloa crus-galli (L.) Beauv. (barnyardgrass); conditions: for pest or weed control at 280 g/ha: 280 g ai/ha; for pest or weed control at 70 g/ha: 70 g ai/ha; for pest or weed control at 140 g/ha: 140 g ai/ha; for GR80 Value ECHCG: calculated by probit analysis, dose for 80% visual injury, may be extrapolated
Protocol: as §1, §2, §3

[4] = system: Euphorbia heterophylla L. (poinsettia, wild); conditions: for pest or weed control at 280 g/ha: 280 g ai/ha; for pest or weed control at 70 g/ha: 70 g ai/ha; for pest or weed control at 140 g/ha: 140 g ai/ha; for GR80 Value EPHHL: calculated by probit analysis, dose for 80% visual injury, may be extrapolated
Protocol: as §1, §2, §3

[5] = system: Helianthus annuus L. (sunflower, common); conditions: for pest or weed control at 280 g/ha: 280 g ai/ha; for pest or weed control at 70 g/ha: 70 g ai/ha; for pest or weed control at 140 g/ha: 140 g ai/ha; for GR80 Value HELAN: calculated by probit analysis, dose for 80% visual injury, may be extrapolated
Protocol: as §1, §2, §3

[6] = system: Viola tricolor L. (pansy); conditions: for pest or weed control at 280 g/ha: 280 g ai/ha; for pest or weed control at 70 g/ha: 70 g ai/ha; for pest or weed control at 140 g/ha: 140 g ai/ha; for GR80 Value VIOTR: calculated by probit analysis, dose for 80% visual injury, may be extrapolated
Protocol: as §1, §2, §3

[7] = system: Oryza sativa L. (rice); conditions: Oryza sativa, 336 h, scored after 14 days, read-out: % Visual Growth Reduction ORYSA; for plant injury at 280 g/ha: 280 g ai/ha; for plant injury at 70 g/ha: 70 g ai/ha; for plant injury at 140 g/ha: 140 g ai/ha
Protocol: as §1, §2

[8] = system: Zea mays L. (corn); conditions: 336 h, scored after 14 days, read-out: % Visual Growth Reduction ZEAMX; for plant injury at 280 g/ha: 280 g ai/ha; for plant injury at 70 g/ha: 70 g ai/ha; for plant injury at 140 g/ha: 140 g ai/ha
Protocol: as §1, §2

[9] = Amaranthus retroflexus, 336 h, foliar post-emergent, scored after 14 days, read-out: % Visual Growth Reduction AMARE
[10] = Chenopodium album, 336 h, foliar post-emergent, scored after 14 days, read-out: % Visual Growth Reduction CHEAL
[11] = Echinochloa crus-galli, 336 h, foliar post-emergent, scored after 14 days, read-out: % Visual Growth Reduction ECHCG
[12] = Euphorbia heterophylla, 336 h, foliar post-emergent, scored after 14 days, read-out: % Visual Growth Reduction EPHHL
[13] = Helianthus annuus, 336 h, foliar post-emergent, scored after 14 days, read-out: % Visual Growth Reduction HELAN
[14] = Viola tricolor, 336 h, foliar post-emergent, scored after 14 days, read-out: % Visual Growth Reduction VIOTR

Row | Structure (SMILES) | pest or weed control at 280 g/ha [1, 9] [%] | pest or weed control at 280 g/ha [2, 10] [%] | pest or weed control at 280 g/ha [3, 11] [%] | pest or weed control at 280 g/ha [4, 12] [%] | pest or weed control at 280 g/ha [5, 13] [%] | pest or weed control at 280 g/ha [6, 14] [%] | plant injury at 280 g/ha [7] [%] | plant injury at 280 g/ha [8] [%] | pest or weed control at 70 g/ha [1, 9] [%] | pest or weed control at 140 g/ha [1, 9] [%] | GR80 Value AMARE [1] [g ai/ha] | pest or weed control at 70 g/ha [2, 10] [%] | pest or weed control at 140 g/ha [2, 10] [%] | GR80 Value CHEAL [2] [g ai/ha] | pest or weed control at 70 g/ha [3, 11] [%] | pest or weed control at 140 g/ha [3, 11] [%] | GR80 Value ECHCG [3] [g ai/ha] | pest or weed control at 70 g/ha [4, 12] [%] | pest or weed control at 140 g/ha [4, 12] [%] | GR80 Value EPHHL [4] [g ai/ha] | also measured
1 | COC(=O)c1nc(CCC(F)(F)F)c(Cl)c(N)c1Cl [Compound F5, methyl 4-amino-3,5-dichloro-6-(3,3,3-trifluoropropyl)picolinate] | 0 | 0 | 0 | 0 | 60 | 0 | 0 | 0 |  |  |  |  |  |  |  |  |  |  |  |  | 
2 | COC(=O)c1nc(CCF)c(F)c(N)c1Cl [Compound F29, Methyl 4-amino-3-chloro-5-fluoro-6-(2-fluoroethyl)picolinate] | 100 | 90 | 60 | 100 | 90 | 90 | 0 | 0 | 90 | 100 | 55.1 | 90 | 90 | <17.5 | 0 | 10 | 432 | 100 | 100 | 53.9 | pest or weed control at 70 g/ha [5, 13]: 80%; pest or weed control at 140 g/ha [5, 13]: 90%; GR80 Value HELAN [5]: 60 g ai/ha; pest or weed control at 70 g/ha [6, 14]: 10%; pest or weed control at 140 g/ha [6, 14]: 70%; GR80 Value VIOTR [6]: 203 g ai/ha; plant injury at 70 g/ha [7]: 0%; plant injury at 140 g/ha [7]: 0%; plant injury at 70 g/ha [8]: 0%; plant injury at 140 g/ha [8]: 0%
3 | Nc1cc(C(F)F)nc(C(=O)O)c1Cl [Compound F27] | 100 | 100 | 80 | 100 | 100 |  | 20 | 60 | 90 | 100 | 17.5 | 100 | 100 | <17.5 | 65 | 80 | 187 | 100 | 100 | <17.5 | pest or weed control at 35 g/ha ([1]; Amaranthus retroflexus, 336 h, 35 g ai/ha, foliar post-emergent, scored after 14 days, read-out: % Visual Growth Reduction AMARE): 90%; pest or weed control at 35 g/ha ([2]; Chenopodium album, 336 h, 35 g ai/ha, foliar post-emergent, scored after 14 days, read-out: % Visual Growth Reduction CHEAL): 100%; pest or weed control at 35 g/ha ([3]; Echinochloa crus-galli, 336 h, 35 g ai/ha, foliar post-emergent, scored after 14 days, read-out: % Visual Growth Reduction ECHCG): 0%; pest or weed control at 35 g/ha ([4]; Euphorbia heterophylla, 336 h, 35 g ai/ha, foliar post-emergent, scored after 14 days, read-out: % Visual Growth Reduction EPHHL): 90%; pest or weed control at 35 g/ha ([5]; Helianthus annuus, 336 h, 35 g ai/ha, foliar post-emergent, scored after 14 days, read-out: % Visual Growth Reduction HELAN): 90%; pest or weed control at 70 g/ha [5, 13]: 100%; pest or weed control at 140 g/ha [5, 13]: 100%; GR80 Value HELAN [5]: <17.5 g ai/ha; pest or weed control at 35 g/ha ([6]; Viola tricolor, 336 h, 35 g ai/ha, foliar post-emergent, scored after 14 days, read-out: % Visual Growth Reduction VIOTR): 80%; pest or weed control at 70 g/ha [6, 14]: 100%; pest or weed control at 140 g/ha [6, 14]: 100%; GR80 Value VIOTR [6]: 59.2 g ai/ha; plant injury at 70 g/ha [7]: 13%; plant injury at 140 g/ha [7]: 15%; plant injury at 35 g/ha ([8]; 35 g ai/ha): 20%; plant injury at 70 g/ha [8]: 50%; plant injury at 140 g/ha [8]: 60%
